This assay has as its target T1, NPM-ALK (Homo sapiens, UniProt Q9UM73).
T1 construct: nucleophosmin (NPM, NPM1; human P06748) fusion partner; expressed in transfected cells; host or cells: murine BaF3 cells (DSMZ), transfected with pCIneo (Promega) coding for NPM-ALK and selected with G418; the other entry of the earlier key: Npm1 (Q61937, Nucleophosmin)
In words: NPM-ALK BaF3 assay (growth inhibition of BaF3-NPM-ALK cells). The format is cell-based. Conditions: human NPM-ALK overexpressing murine BaF3 cells. An excerpt: The expression of NPM-ALK may be achieved by transfecting the BaF3 cell line with an expression vector pClneo™ (Promega Corp., Madison Wis., USA) coding for NPM-ALK and subsequent selection of G418 resistant cells. Non-transfected BaF3 cells depend on IL-3 for cell survival. In contrast, NPM-ALK expressing BaF3 cells (named BaF3-NPM-ALK hereinafter) can proliferate in the absence of IL-3 because they obtain proliferative signal through NPM-ALK kinase. Putative inhibitors of the NPM-ALK kinase therefore abolish the growth signal and may result in antiproliferative activity. The antiproliferative activity of putative inhibitors of the NPM-ALK kinase can however be overcome by addition of IL-3, which provides growth signals through an NPM-ALK independent mechanism. An analogous cell system using FLT3 kinase has also been described (see, E Weisberg et al. Cancer Cell; 1, 433-443 (2002)).
The inhibitory activity of the compounds of the invention may be determined as follows. In general, BaF3-NPM-ALK cells (15,000/microtitre plate well) are transferred to 96-well microtitre plates. Test compounds dissolved in dimethyl sulfoxide (DMSO) are added in a series of concentrations (dilution series) in such a manner that the final concentration of DMSO is not greater than 1% (v/v). After the addition, the plates are incubated for two days during which the control cultures without test compound are able to undergo two cell-division cycles. The growth of the BaF3-NPM-ALK cells is measured by means of YOPRO™ staining [T Idziorek et al. J. Immunol. Methods; 185: 249-258 (1995)]: 25 μl of lysis buffer comprising 20 mM sodium citrate, pH 4.0, 26.8 mM sodium chloride, 0.4% NP40, 20 mM EDTA and […] to each well. Cell lysis is completed within 60 min at room temperature and total amount of YOPRO™ bound to DNA is determined by measurement using the Cytofluor II 96-well reader (PerSeptive Biosystems) with the following settings: Excitation (nm) 485/20 and Emission (nm) 530/25.
IC50 values may be determined by a computer-aided system using the formula: IC50=[(ABStest−ABSstart)/(ABScontrol−ABSstart)]×100·(ABS=absorption)
In general, compounds of the invention have IC50 values from 1 nM to 10 μM. In some examples, compounds of the invention have IC50 values from 0.01 μM to 5 μM. In other examples, compounds of the invention have IC50 values from 0.01 μM to 1 μM, or more particularly from 1 nM to 1 μM.
Table 1 describes representative compounds of the invention, prepared following the procedures described above. IC50 values are as measured in an NPM-ALK BaF3 assay.
T1 sequence (Q9UM73 with tags, fused parts or gaps): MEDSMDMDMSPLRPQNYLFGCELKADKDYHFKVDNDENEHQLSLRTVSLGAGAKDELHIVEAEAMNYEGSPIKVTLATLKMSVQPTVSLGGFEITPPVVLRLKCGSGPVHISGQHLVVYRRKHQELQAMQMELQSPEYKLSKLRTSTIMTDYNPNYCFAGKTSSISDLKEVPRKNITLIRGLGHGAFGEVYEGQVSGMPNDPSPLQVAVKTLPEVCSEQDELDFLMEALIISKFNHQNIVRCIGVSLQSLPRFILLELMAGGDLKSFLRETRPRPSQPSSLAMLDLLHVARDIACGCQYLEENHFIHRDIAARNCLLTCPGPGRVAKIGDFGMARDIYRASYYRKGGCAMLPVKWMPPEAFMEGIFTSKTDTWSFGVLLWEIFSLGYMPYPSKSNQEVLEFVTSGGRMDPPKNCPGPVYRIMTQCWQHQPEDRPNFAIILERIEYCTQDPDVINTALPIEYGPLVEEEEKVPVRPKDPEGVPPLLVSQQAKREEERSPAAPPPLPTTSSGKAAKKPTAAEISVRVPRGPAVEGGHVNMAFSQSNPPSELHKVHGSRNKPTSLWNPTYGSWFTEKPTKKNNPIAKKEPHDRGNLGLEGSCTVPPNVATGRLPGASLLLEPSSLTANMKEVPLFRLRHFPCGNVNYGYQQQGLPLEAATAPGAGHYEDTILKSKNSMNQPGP
Usually IC50 stands for the midpoint of a concentration-inhibition curve. Read a low IC50 as greater potency. `COc1cc(C2CCN(C3CCOCC3)CC2)c(C)cc1Nc1nc(Nc2ccccc2S(=O)(=O)C(C)C)n2nccc2n1` [Ex 83]: half-maximal inhibition (IC50) required 23 nM. As for `COc1cc(C2CCN(C(=O)C3CCCCN3)CC2)c(C)cc1Nc1nc(Nc2ccccc2S(=O)(=O)C(C)C)n2nccc2n1` (stereo not drawn) [Ex 29], the figure is 54 nM; as for `COc1cc(C2CCN(C)CC2)c(C)cc1Nc1nc(Nc2ccccc2S(=O)(=O)C(C)C)n2nccc2n1` [Ex 3], 19 nM. The compound `COc1cc(C2CCN(C3CCSCC3)CC2)c(C)cc1Nc1nc(Nc2ccccc2S(=O)(=O)C(C)C)n2nccc2n1` [Ex 84] yielded an IC50 of 25 nM. Compound `COc1cc(C2CCN(C(=O)[C@@H](C)NCCO)CC2)c(C)cc1Nc1nc(Nc2ccccc2S(=O)(=O)C(C)C)n2nccc2n1` [Ex 97] came in with an IC50 of 32 nM. The same measure for `COc1cc(C2CCN(C(=O)CN(C)C)CC2)c(C)cc1Nc1nc(Nc2ccccc2S(=O)(=O)C(C)C)n2nccc2n1` [Ex 2]: 11 nM; for `COc1cc(C2CCN(C(=O)CNCCO)CC2)c(C)cc1Nc1nc(Nc2ccccc2S(=O)(=O)C(C)C)n2nccc2n1` [Ex 58]: 86 nM; for `COc1cc(C2CCN(C(=O)[C@@H](N)CO)CC2)c(C)cc1Nc1nc(Nc2ccccc2S(=O)(=O)C(C)C)n2nccc2n1` [Ex 69]: 59 nM. As for `COc1cc(C2CCN(C(=O)CN3CC[C@@H](O)C3)CC2)c(C)cc1Nc1nc(Nc2ccccc2S(=O)(=O)C(C)C)n2nccc2n1` [Ex 60], the IC50 was 31 nM.

With `COc1cc(C2CCN(C(=O)[C@H](C)N(C)CCO)CC2)c(C)cc1Nc1nc(Nc2ccccc2S(=O)(=O)C(C)C)n2nccc2n1` [Ex 95], the midpoint of inhibition, the IC50, lay at 22 nM. Compound `COc1cc(C2CCN(CC(N)=O)CC2)c(C)cc1Nc1nc(Nc2ccccc2S(=O)(=O)C(C)C)n2nccc2n1` [Ex 23] yielded an IC50 of 16 nM. Consider `CN[C@H](C)C(=O)N1CCC(c2cc(OC)c(Nc3nc(Nc4ccccc4S(=O)(=O)C(C)C)n4nccc4n3)cc2C)CC1` [Ex 44], for which the IC50 came out at 18 nM.

The compound `COc1cc(C2CCN(C(=O)CNC(C)C)CC2)c(C)cc1Nc1nc(Nc2ccccc2S(=O)(=O)C(C)C)n2nccc2n1` [Ex 57] had an IC50 of 32 nM. In the case of `COc1cc(C2CCN(C(=O)[C@H](C)N(C)C)CC2)c(C)cc1Nc1nc(Nc2ccccc2S(=O)(=O)C(C)C)n2nccc2n1` [Ex 66], the IC50 was found to be 32 nM.

Take `COc1cc(C2CCN(C(=O)[C@@H]3C[C@@H](O)CN3C)CC2)c(C)cc1Nc1nc(Nc2ccccc2S(=O)(=O)C(C)C)n2nccc2n1` [Ex 50]: the IC50 came out at 52 nM.

As to `COc1cc(C2CCN(C(=O)CN3CC(O)C3)CC2)c(C)cc1Nc1nc(Nc2ccccc2S(=O)(=O)C(C)C)n2nccc2n1` [Ex 59], the midpoint of inhibition, the IC50, lay at 193 nM. Take `CCNC1(C(=O)N2CCC(c3cc(OC)c(Nc4nc(Nc5ccccc5S(=O)(=O)C(C)C)n5nccc5n4)cc3C)CC2)CC1` [Ex 22]: the IC50 is 23 nM. On to `COc1cc(C2CCN(C(=O)CO)CC2)c(C)cc1Nc1nc(Nc2ccccc2S(=O)(=O)C(C)C)n2nccc2n1` [Ex 73], for which the IC50 is 40 nM.

Turning to `COc1cc(C2CCN(C(=O)[C@H](C)N3CCC3)CC2)c(C)cc1Nc1nc(Nc2ccccc2S(=O)(=O)C(C)C)n2nccc2n1` [Ex 61], 34 nM corresponded to half-maximal inhibition (IC50).

In turn, `COc1cc(C2CCN(C(=O)C3COCCN3)CC2)c(C)cc1Nc1nc(Nc2ccccc2S(=O)(=O)C(C)C)n2nccc2n1` (stereo not drawn) [Ex 32] came in with an IC50 of 29 nM.

In the case of `COc1cc(C2CCN(C(=O)CN3CCCCC3)CC2)c(C)cc1Nc1nc(Nc2ccccc2S(=O)(=O)C(C)C)n2nccc2n1` [Ex 14], the IC50 came out at 26 nM.

The compound `COc1cc(C2CCN(CCC(=O)N3CCC3)CC2)c(C)cc1Nc1nc(Nc2ccccc2S(=O)(=O)C(C)C)n2nccc2n1` [Ex 89] displayed an IC50 of 15 nM. The same measure for `COc1cc(C2CCN(C(=O)C3CCCN3C)CC2)c(C)cc1Nc1nc(Nc2ccccc2S(=O)(=O)C(C)C)n2nccc2n1` (stereo not drawn) [Ex 34]: 25 nM. `COc1cc(C2CCN(C(=O)[C@@H]3C[C@H](F)CN3)CC2)c(C)cc1Nc1nc(Nc2ccccc2S(=O)(=O)C(C)C)n2nccc2n1` [Ex 54] had an IC50 of 42 nM. As for `COc1cc(C2CCN(C(=O)[C@@H]3C[C@H](O)CN3)CC2)c(C)cc1Nc1nc(Nc2ccccc2S(=O)(=O)C(C)C)n2nccc2n1` [Ex 55], the IC50 is 63 nM. The compound `COc1cc(C2CCN(CC3CC3)CC2)c(C)cc1Nc1nc(Nc2ccccc2S(=O)(=O)C(C)C)n2nccc2n1` [Ex 8] gave an IC50 of 43 nM. The compound `COc1cc(C2CCN(C(=O)CCCN(C)C)CC2)c(C)cc1Nc1nc(Nc2ccccc2S(=O)(=O)C(C)C)n2nccc2n1` [Ex 72] displayed an IC50 of 58 nM.

The compound `COc1cc(C2CCN(C(=O)CNC(C)(C)C)CC2)c(C)cc1Nc1nc(Nc2ccccc2S(=O)(=O)C(C)C)n2nccc2n1` [Ex 63] registered an IC50 of 53 nM. In turn, `CCN(CC)CC(=O)N1CCC(c2cc(OC)c(Nc3nc(Nc4ccccc4S(=O)(=O)C(C)C)n4nccc4n3)cc2C)CC1` [Ex 110] gave an IC50 of 16 nM. Regarding `COc1cc(C2CCN(C(=O)CN3CCCC3)CC2)c(C)cc1Nc1nc(Nc2ccccc2S(=O)(=O)C(C)C)n2nccc2n1` [Ex 15], the IC50 was found to be 31 nM. As for `COc1cc(C2CCN(C(=O)CN3CC[C@@H](F)C3)CC2)c(C)cc1Nc1nc(Nc2ccccc2S(=O)(=O)C(C)C)n2nccc2n1` [Ex 62], the figure is 58 nM; as for `COc1cc(C2CCN(C(=O)[C@@H]3COC(C)(C)CN3)CC2)c(C)cc1Nc1nc(Nc2ccccc2S(=O)(=O)C(C)C)n2nccc2n1` [Ex 87], 29 nM. As for `COCCNCC(=O)N1CCC(c2cc(OC)c(Nc3nc(Nc4ccccc4S(=O)(=O)C(C)C)n4nccc4n3)cc2C)CC1` [Ex 74], the figure is 28 nM. The compound `COc1cc(C2CCN(C(=O)CCCN3CCCC3)CC2)c(C)cc1Nc1nc(Nc2ccccc2S(=O)(=O)C(C)C)n2nccc2n1` [Ex 100] gave an IC50 of 33 nM. The compound `COc1cc(C2CCN(C(=O)CN)CC2)c(C)cc1Nc1nc(Nc2ccccc2S(=O)(=O)C(C)C)n2nccc2n1` [Ex 68] gave an IC50 of 17 nM. In the case of `COc1cc(C2CCN(C(=O)CN3C[C@@H](O)[C@H](O)C3)CC2)c(C)cc1Nc1nc(Nc2ccccc2S(=O)(=O)C(C)C)n2nccc2n1` [Ex 21], the IC50 was 286 nM. As to `CC(C)S(=O)(=O)c1ccccc1Nc1nc(Nc2ccc(C3CCNCC3)cc2)nc2ccnn12` [Ex 37], half-maximal inhibition (IC50) required 130 nM. Turning to `COc1cc(C2CCN(C(=O)[C@H]3C[C@@H](O)CN3)CC2)c(C)cc1Nc1nc(Nc2ccccc2S(=O)(=O)C(C)C)n2nccc2n1` [Ex 56], the IC50 was 79 nM. As for `Cc1cc(Nc2nc(Nc3ccccc3S(=O)(=O)C(C)C)n3nccc3n2)c(OC(C)C)cc1C1CCN(C)CC1` [Ex 1, N2-(2-isopropoxy-5-methyl-4-(1-methylpiperidin-4-yl)phenyl)-N4-(2-(isopropylsulfonyl)phenyl)pyrazolo[1,5-a][1,3,5]triazine-2,4-diamine], the figure is 115 nM.

Compound `COc1cc(C2CCN(C(=O)[C@H](C)N3CC[C@@H](O)C3)CC2)c(C)cc1Nc1nc(Nc2ccccc2S(=O)(=O)C(C)C)n2nccc2n1` [Ex 79] showed an IC50 of 38 nM. Compound `Cc1cc(Nc2nc(Nc3ccccc3S(=O)(=O)C(C)C)n3nccc3n2)c(OC(C)C)cc1C1CCN(Cc2cnn(C)c2)CC1` [Ex 6] had an IC50 of 80 nM.

Compound `CC(C)S(=O)(=O)c1ccccc1Nc1nc(Nc2ccc3c(c2)CCNC3)nc2ccnn12` [Ex 41] displayed an IC50 of 85 nM. As for `COc1cc(C2CCN(C(=O)CNC[C@@H](O)CO)CC2)c(C)cc1Nc1nc(Nc2ccccc2S(=O)(=O)C(C)C)n2nccc2n1` [Ex 43], the figure is 150 nM; as for `CC(C)S(=O)(=O)c1ccccc1Nc1nc(Nc2ccc3c(c2)CNCC3)nc2ccnn12` [Ex 42], 1020 nM. The same measure for `CCNCC(=O)N1CCC(c2cc(OC)c(Nc3nc(Nc4ccccc4S(=O)(=O)C(C)C)n4nccc4n3)cc2C)CC1` [Ex 105]: 15 nM; for `COc1cc(C2CCN(CCC(N)=O)CC2)c(C)cc1Nc1nc(Nc2ccccc2S(=O)(=O)C(C)C)n2nccc2n1` [Ex 13]: 15 nM. The same measure for `CCN(CC)CCC(=O)N1CCC(c2cc(OC)c(Nc3nc(Nc4ccccc4S(=O)(=O)C(C)C)n4nccc4n3)cc2C)CC1` [Ex 99]: 35 nM. On to `COc1cc(C2CCN(C(=O)[C@@H](C)N3CCCC3)CC2)c(C)cc1Nc1nc(Nc2ccccc2S(=O)(=O)C(C)C)n2nccc2n1` [Ex 96], for which the IC50 came to 32 nM.

These data come from patent US8518931B2, “Compounds and compositions as kinase inhibitors” (IRM LLC, priority 2008, dated 2013).
